The record followed here is patent US9518060B2, “Substituted pyrrolo[3,4-c]pyrazoles as PKC kinase inhibitors” (PFIZER INC., priority 2007, dated 2016).

Where a name gives a salt, the structure may show the parent alone.

Sequence of Protein Kinase C beta 2 (PKCβII) (P05771 other isoform, or with tags, fused parts or gaps): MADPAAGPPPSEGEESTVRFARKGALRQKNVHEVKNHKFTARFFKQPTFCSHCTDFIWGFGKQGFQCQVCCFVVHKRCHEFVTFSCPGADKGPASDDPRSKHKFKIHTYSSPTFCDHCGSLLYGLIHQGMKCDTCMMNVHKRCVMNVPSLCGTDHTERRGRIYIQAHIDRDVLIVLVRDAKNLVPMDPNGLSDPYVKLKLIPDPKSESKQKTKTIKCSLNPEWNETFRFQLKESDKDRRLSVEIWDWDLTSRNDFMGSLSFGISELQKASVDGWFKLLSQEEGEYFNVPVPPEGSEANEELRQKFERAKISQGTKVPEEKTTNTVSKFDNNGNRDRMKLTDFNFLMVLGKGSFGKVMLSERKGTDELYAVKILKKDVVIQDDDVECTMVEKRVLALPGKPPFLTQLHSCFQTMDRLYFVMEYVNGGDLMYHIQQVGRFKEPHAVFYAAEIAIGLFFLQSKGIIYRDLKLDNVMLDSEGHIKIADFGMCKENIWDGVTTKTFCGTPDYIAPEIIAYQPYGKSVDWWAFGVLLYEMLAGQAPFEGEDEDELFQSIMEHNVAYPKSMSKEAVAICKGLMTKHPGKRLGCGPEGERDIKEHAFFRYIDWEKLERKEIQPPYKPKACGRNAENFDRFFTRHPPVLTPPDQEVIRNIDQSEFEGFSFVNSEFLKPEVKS

The target of this assay is Protein Kinase C beta 2 (PKCβII) (Homo sapiens (Human), UniProt P05771). Nature of the assay: PKCβII coupled spectrophotometric kinase assay (PK/LDH, NADH absorbance at 340 nm). The class given is biochemical. Conditions: apparent Ki, ATP competitive inhibition model (Morrison equation); 0.1 mM ATP, 5 nM PKC, 30° C.; read-out: Ki app. The procedure:
Protein Kinase C beta 2 (PKCβII) catalyzes the production of ADP from ATP that accompanies the phosphoryl transfer to the PKC Pseudosubstrate peptide (A→S, RFARKGSLRQKNV). This transfer is coupled to the oxidation of β-NADH through the activities of Pyruvate Kinase (PK) and Lactate Dehydrogenase (LDH). β-NADH conversion to NAD+ is monitored by the decrease in absorbance at 340 nm (e=6.22 cm^−1 mM^−1) using a Molecular Devices SPECTRA max PLUS spectrophotometer.
A typical assay was carried out on a 96-well, clear microtiter plate in a Molecular Devices spectrophotometer for 20 minutes at 30° C. in 0.1 mL of assay buffer containing 50 mM HEPES, pH 7.4, 5 nM PKC, 23 units of pyruvate kinase, 33 units of lactate dehydrogenase, 0.15 mM peptide, 0.1 mM ATP, 1 mM DTT, 4 mM PEP, 8 mM MgCl2, 0.3 mM NADH, 60 mM CaCl2, 10 mg/mL PS, 50 ng/mL PMA, 7.5% DMSO and from about 10,000 nM to 0.169 nM compound inhibitor. Stock solutions of 3-sn-phosphatidyl-L-serine (PS) and phorbol-12-myristate-13-acetate (PMA) were sonicated for 30 seconds just prior to addition to assay buffer and assays were initiated by the addition of 100 μM ATP.
Steady-state kinetic parameters for the bi-bi kinase reaction were determined at saturating phospho-acceptor peptide substrate concentration (0.15 mM) by fitting initial velocity data to the Michaelis-Menten equation, v=Vmax[S]/(KM+[S]) where v is the measured initial velocity, Vmax is the maximal enzyme velocity, [S] is the ATP substrate concentration, and KM is the Michealis constant for ATP. Enzyme turnover values (kcat) were calculated according to […], where [E] is the total enzyme concentration. Enzyme inhibition constants (apparent Ki values) were determined by fitting initial velocities at variable inhibitor concentrations to a model for ATP competitive inhibition based on the Morrison equation). Morrison, J. F., Biochim. Biophys Acta 185: 269-286 (1969).
`CCOc1ncc(F)c(Nc2n[nH]c3c2CN(C(=O)N2C[C@]4(C)CCCN4C[C@@H]2C)C3(C)C)n1` [Example K15, 5-{[(3S,8aS)-3,8a-dimethylhexahydropyrrolo[1,2-a]pyrazin-2(1H)-yl]carbonyl}-N-(2-ethoxy-5-fluoropyrimidin-4-yl)-6,6-dimethyl-1,4,5,6-tetrahydropyrrolo[3,4-c]pyrazol-3-amine]: the Ki was found to be 11.2 nM.

As to `CCOc1ncc(F)c(Nc2n[nH]c3c2CN(C(=O)N2C[C@@H](C)N(CCCOC)C[C@@H]2C)C3(C)C)n1` [Example K5], the Ki was found to be 0.683 nM.

With `CCc1ncc(F)c(Nc2n[nH]c3c2CN(C(=O)N2C[C@@H](C)N(CC4CCOCC4)C[C@@H]2C)C3(C)C)n1` [Example J10, 5-{[(2S,5R)-2,5-dimethyl-4-(tetrahydro-2H-pyran-4-ylmethyl)piperazin-1-yl]carbonyl}-N-(2-ethyl-5-fluoropyrimidin-4-yl)-6,6-dimethyl-1,4,5,6-tetrahydropyrrolo[3,4-c]pyrazol-3-amine], the Ki is less than 10 nM.

On to `COCCOc1ncc(F)c(Nc2n[nH]c3c2CN(C(=O)N2C[C@@H](C)N(C)C[C@@H]2C)C3(C)C)n1` [Example K12, N-[5-fluoro-2-(2-methoxyethoxy)pyrimidin-4-yl]-6,6-dimethyl-5-{[(2S,5R)-2,4,5-trimethylpiperazin-1-yl]carbonyl}-1,4,5,6-tetrahydropyrrolo[3,4-c]pyrazol-3-amine], for which the Ki is 15.2 nM.

Consider `CCNc1ncc(F)c(Nc2n[nH]c3c2CN(C(=O)N2C[C@@H](C)N(CCOC)C[C@@H]2C)C3(C)C)n1` [Example B4, N^2-ethyl-5-fluoro-N4-(5-{[(2S,5R)-4-(2-methoxyethyl)-2,5-dimethylpiperazin-1-yl]carbonyl}-6,6-dimethyl-1,4,5,6-tetrahydropyrrolo[3,4-c]pyrazol-3-yl)pyrimidine-2,4-diamine], for which the Ki worked out at 13.5 nM.

For `CC(C)c1ncc(F)c(Nc2n[nH]c3c2CN(C(=O)N2CC(C)(C)N(C)C[C@@H]2C)C3(C)C)n1` [Example I2, N-(5-fluoro-2-isopropylpyrimidin-4-yl)-6,6-dimethyl-5-{[(2S)-2,4,5,5-tetramethylpiperazin-1-yl]carbonyl}-1,4,5,6-tetrahydropyrrolo[3,4-c]pyrazol-3-amine], the Ki was 3.67 nM.

Consider `CCN1C[C@H](C)N(C(=O)N2Cc3c(Nc4nc(C)ncc4F)n[nH]c3C2(C)C)C[C@H]1C` [AA2, 5-{[(2S,5R)-4-ethyl-2,5-dimethylpiperazin-1-yl]carbonyl}-N-(5-fluoro-2-methylpyrimidin-4-yl)-6,6-dimethyl-1,4,5,6-tetrahydropyrrolo[3,4-c]pyrazol-3-amine], for which the Ki is 18.9 nM.

For `C[C@@H]1CN(C(=O)N2Cc3c(Nc4nc(N5CCOCC5)ncc4F)n[nH]c3C2(C)C)[C@@H](C)CN1C` [Example B7, N-(5-fluoro-2-morpholin-4-ylpyrimidin-4-yl)-6,6-dimethyl-5-{[(2S,5R)-2,4,5-trimethylpiperazin-1-yl]carbonyl}-1,4,5,6-tetrahydropyrrolo[3,4-c]pyrazol-3-amine], the Ki is 20.1 nM.

In the case of `COCc1ncc(F)c(Nc2n[nH]c3c2CN(C(=O)N2C[C@@H](C)N(CC4CCOCC4)C[C@@H]2C)C3(C)C)n1` [Example N1, 5-{[(2S,5R)-2,5-dimethyl-4-(tetrahydro-2H-pyran-4-ylmethyl)piperazin-1-yl]carbonyl}-N-[5-fluoro-2-(methoxymethyl)pyrimidin-4-yl]-6,6-dimethyl-1,4,5,6-tetrahydropyrrolo[3,4-c]pyrazol-3-amine], the Ki was less than 10 nM.

Turning to `CCOc1ccnc(Nc2n[nH]c3c2CN(C(=O)N2C[C@@H](C)N(C)C[C@@H]2C)C3(C)C)n1` [Example M1, N-(4-ethoxypyrimidin-2-yl)-6,6-dimethyl-5-{[(2S,5R)-2,4,5-trimethylpiperazin-1-yl]carbonyl}-1,4,5,6-tetrahydropyrrolo[3,4-c]pyrazol-3-amine], the Ki came out at 4.24 nM.

As to `Cc1cccc(Nc2n[nH]c3c2CN(C(=O)C2(F)CCN(C)CC2)C3(C)C)n1` [Example J2, 5-[(4-fluoro-1-methylpiperidin-4-yl)carbonyl]-6,6-dimethyl-N-(6-methylpyridin-2-yl)-1,4,5,6-tetrahydropyrrolo[3,4-c]pyrazol-3-amine], the Ki amounted to 59.9 nM.

Consider `Cc1ccc(F)c(Nc2n[nH]c3c2CN(C(=O)C2(F)CCN(C)CC2)C3(C)C)n1` [Example J1, 5-[(4-fluoro-1-methylpiperidin-4-yl)carbonyl]-N-(3-fluoro-6-methylpyridin-2-yl)-6,6-dimethyl-1,4,5,6-tetrahydropyrrolo[3,4-c]pyrazol-3-amine], for which the Ki is 21.2 nM.

With `CCc1ncc(F)c(Nc2n[nH]c3c2CN(C(=O)N2CC(C)(C)N(C)C[C@@H]2C)C3(C)C)n1` [Example D1, N-(2-ethyl-5-fluoropyrimidin-4-yl)-6,6-dimethyl-5-{[(2S)-2,4,5,5-tetramethylpiperazin-1-yl]carbonyl}-1,4,5,6-tetrahydropyrrolo[3,4-c]pyrazol-3-amine], the Ki was determined as 5.43 nM.

For `Cc1ncc(F)c(Nc2n[nH]c3c2CN(C(=O)N2C[C@@H](C)N(CC4(O)CCOCC4)C[C@@H]2C)C3(C)C)n1` [Example H8, 4-[((2R,5S)-4-{[3-[(5-fluoro-2-methylpyrimidin-4-yl)amino]-6,6-dimethyl-4,6-dihydropyrrolo[3,4-c]pyrazol-5(1H)-yl]carbonyl}-2,5-dimethylpiperazin-1-yl)methyl]tetrahydro-2H-pyran-4-ol], the Ki turned out to be 157 nM.

For the compound `CCOc1ncc(F)c(Nc2n[nH]c3c2CN(C(=O)C2(F)CCN(C)CC2)C3(C)C)n1` [Example L1, N-(2-ethoxy-5-fluoropyrimidin-4-yl)-5-[(4-fluoro-1-methylpiperidin-4-yl)carbonyl]-6,6-dimethyl-1,4,5,6-tetrahydropyrrolo[3,4-c]pyrazol-3-amine], the Ki stood at 16.8 nM.

Consider `COCc1ncc(F)c(Nc2n[nH]c3c2CN(C(=O)N2CC(CCO)N(C)C[C@@H]2C)C3(C)C)n1` (single isomer, unassigned) [Example N2], for which the Ki is less than 10 nM.

For the compound `CCNc1ncc(F)c(Nc2n[nH]c3c2CN(C(=O)N2C[C@@H](C)N(CC4CCOCC4)C[C@@H]2C)C3(C)C)n1` [Example A11, N^4-(5-{[(2S,5R)-2,5-dimethyl-4-(tetrahydro-2H-pyran-4-ylmethyl)piperazin-1-yl]carbonyl}-6,6-dimethyl-1,4,5,6-tetrahydropyrrolo[3,4-c]pyrazol-3-yl)-N^2-ethyl-5-fluoropyrimidine-2,4-diamine], the Ki is less than 10 nM.

For `Cc1ncc(F)c(Nc2n[nH]c3c2CN(C(=O)N2C[C@@H]4CCCN4C[C@@H]2C)C3(C)C)n1` [Example H1, N-(5-fluoro-2-methylpyrimidin-4-yl)-6,6-dimethyl-5-{[(3S,8aS)-3-methylhexahydropyrrolo[1,2-a]pyrazin-2(1H)-yl]carbonyl}-1,4,5,6-tetrahydropyrrolo[3,4-c]pyrazol-3-amine], the Ki is 39.8 nM.

Take `COCCCOc1ncc(F)c(Nc2n[nH]c3c2CN(C(=O)N2C[C@@H](C)N(C)C[C@@H]2C)C3(C)C)n1` [Example K10, N-[5-fluoro-2-(3-methoxypropoxy)pyrimidin-4-yl]-6,6-dimethyl-5-{[(2S,5R)-2,4,5-trimethylpiperazin-1-yl]carbonyl}-1,4,5,6-tetrahydropyrrolo[3,4-c]pyrazol-3-amine]: the Ki turned out to be 28.4 nM.

In the case of `CCNc1ncc(F)c(Nc2n[nH]c3c2CN(C(=O)N2C[C@@H](C)N(CCCOC)C[C@@H]2C)C3(C)C)n1` [Example B1, N^2-ethyl-5-fluoro-N^4-(5-{[(2S,5R)-4-(3-methoxypropyl)-2,5-dimethylpiperazin-1-yl]carbonyl}-6,6-dimethyl-1,4,5,6-tetrahydropyrrolo[3,4-c]pyrazol-3-yl)pyrimidine-2,4-diamine acetate salt], the Ki turned out to be 5.09 nM.

Regarding `CCOc1ncc(F)c(Nc2n[nH]c3c2CN(C(=O)N2C[C@@H](C)N(CC4(O)CCOCC4)C[C@@H]2C)C3(C)C)n1` [Example K22, 4-[((2R,5S)-4-{[3-[(2-ethoxy-5-fluoropyrimidin-4-yl)amino]-6,6-dimethyl-4,6-dihydropyrrolo[3,4-c]pyrazol-5(1H)-yl]carbonyl}-2,5-dimethylpiperazin-1-yl)methyl]tetrahydro-2H-pyran-4-ol], the Ki came out at 15.3 nM.

Turning to `CCNc1ncc(F)c(Nc2n[nH]c3c2CN(C(=O)N2C[C@@H](C)N(C)C[C@@H]2C)C3(C)C)n1` [Example B3, N^4-(6,6-dimethyl-5-{[(2S,5R)-2,4,5-trimethylpiperazin-1-yl]carbonyl}-1,4,5,6-tetrahydropyrrolo[3,4-c]pyrazol-3-yl)-N^2-ethyl-5-fluoropyrimidine-2,4-diamine], the Ki amounted to 2.03 nM.
